Activity calls are given as the source filed them. The calls are words filed in the database; no cut-off is given here.
Key:
[1] = Cytotoxicity against human NCI60 cells; type: functional
Bacillus subtilis = assay: Antimicrobial activity against Bacillus subtilis at 200 ug/disk; type: functional, organism-based

For `CC(C)=CC[C@@]12C[C@@H]3C(=O)O[C@H](CC(C)C)C(=O)N3[C@@H]1Nc1ccccc12` [MOLLENINE A], the GI50 [1] was 31 µM and the Activity (Bacillus subtilis) was “Active”.

Source: ChEMBL document CHEMBL1150908, “Mollenines A and B: new dioxomorpholines from the ascostromata of Eupenicillium molle” (1998)
